Data as given in publication PMC6961122 (Bioorganic & Medicinal Chemistry, 2020).
Where two headings read alike, the source gives them in different places.

What was measured:
G317 spheroids = test: 3D spheroids assay, G317 spheroid area; assay type: cell-based, human; conditions: pre-formed spheroids; 0.01–10 µM for 8 days
Experimental: To test the compounds under conditions that better represent the tumour microenvironment, G317 cells were cultured in 3D and pre-formed spheroids treated with eCF309, eCF324 and the positive controls at a range of concentrations (0.01–10 µM) for 8 days.
Fig. 6 (a) Images of G317 spheroids on day 10. Spheroids were treated with 10 μM of each inhibitor during 8 days, images were acquired using ImageXpress. Scale bar = 100 μm. (b) Area of G317 patient derived spheroids at day 10. Spheroid area was calculated with a custom pipeline on CellProfiler. Data are mean ± SEM of 6 independent spheroids from two different cultures, ***P < 0.001, **P < 0.01 compared to DMSO controls (two-way ANOVA, Tukey post hoc test).
4 × 10^3 G317 cells were seeded in an ultra-low attachment round bottom 96-well plate, centrifuged at 1000g, 4 °C for 10 min and allowed to form spheroids for 2 days. Spheroids were then incubated with the inhibitors at 4 concentrations ranging from 10 nM to 10 µM. Spheroids were imaged at day 10 using ImageXpress (Molecular Devices LLC) and processed with ImageJ.[25] Spheroid area was calculated with a custom pipeline on CellProfiler.[26]

[1] = test system: G317 patient-derived glioma cells; test: Growth inhibition (GI50, PrestoBlue, 5 d) in patient-derived glioma cells G317; assay type: cell-based, human; conditions: Homo sapiens, Glioma cell, 120 h, 5 d treatment, growth related to t=0 and DMSO, extrapolated from sigmoidal dose-response curve, read-out: GI50 (50% of growth inhibition) in G317
Experimental: Cells were treated with each inhibitor at concentrations ranging from 1 to 10,000 nM and PrestoBlue assay used at day 5 to detect viability. […] Data are means ± SEM of 3 independent experiments in triplicates.
(§1) U87 and T98 cells (ATCC) were cultured in DMEM (Gibco), supplemented with 10% (v/v) FBS (Gibco) and 2 mM L-Glutamine (Gibco) in a standard incubator (95% humidity, 5% CO2), and subcultured twice per week through trypsinization. G317 patient-derived glioma cells were established by the Glioma Cellular Genetics Resource (gcgr.org.uk) funded by Cancer Research UK. Ethics approval for use of patient-derived cells and early access confirmation to reagents from the Glioma Cellular Genetics Resource assured that all ethical issues according to UK legislation are fulfilled. G317 were cultured in DMEM/HAMS-F12 (Sigma) supplemented with 1.5 g L^−1 D-(+)-Glucose (Sigma), MEM non-essential aminoacids (Gibco), 0.015% (w/v) Penicillin-Streptomycin (Gibco), 0.012% (w/v) BSA (Gibco), 0.1 mM β-mercaptoethanol (Gibco), B27 (Gibco) and N2 supplements (Gibco). Cells were detached using accutase solution (Sigma) and subcultured once per week. Before adding to the cells, medium was supplemented with 10 ng ml^−1 mouse EGF (Preprotech), 10 ng ml^−1 human FGF (Preprotech), and 1 µg ml^−1 Laminin (Sigma).
(§2) 1 × 10^3 U87 cells/well, 5 × 10^2 T98 cells/well, 1 × 10^4 G317 cells/well, 1 × 10^4 HBVP cells/well and 1 × 10^4 bEnd3 cells/well were seeded in 96-well plates. After 48 h in culture, cells were treated with the inhibitors for 5 d. For GI50 determination, the viability of a triplicate sample of each experiment before treatment was measured with the PrestoBlue Reagent (Invitrogen), to establish a basepoint 0% of growth. […] ZIP Synergy scores were obtained with Synergy finder.[22] Viability percentage, EC50 and GI50 values were obtained using GraphPad Prism version 8.0.0 for Windows, GraphPad Software, San Diego, California USA, www.graphpad.com.
Table S2 . GI 50 values (nM) calculated for eCF309 , eCF311 , eCF312 , eCF324 , eCF325 and controls
Cells were treated with 10, 3, 1 µM,
300, 100, 30, 10, 3, 1, 0 nM of each inhibitor during 5 d. Cell growth (PrestoBlue) was related to t=0 (before
drug treatment), and GI 50 values were extrapolated from their corresponding sigmoidal dose-response curve

T98 cells [2] = test: Cell viability assay (PrestoBlue, 5 d) in T98 glioma cells; assay type: cell-based; conditions: Homo sapiens, T98, 120 h, library screen, 5 d treatment, mean of three independent experiments in triplicates, read-out: EC50 T98 ± SEM
Experimental: (§3) The antiproliferative activity of a total of 100 compounds was tested against U87 and T98 glioma cell lines, using TMZ[3] and the Topoisomerase I inhibitor SN-38[18] as positive controls. Cells were treated with the library members for 5 d at three different concentrations (3, 30 and 300 µM) and cell viability determined using the PrestoBlue reagent. Half-maximal effective concentration (EC50) values were calculated from the corresponding dose-response curves and plotted in Fig. 2a as a heatmap to facilitate data analysis, with black meaning no activity and dark to light green to yellow transitions indicating decreasing EC50 values (=increasing potencies). Table 1 of the Suppl. Data contains the corresponding EC50 values ± SEM.
(§4) INK128 and SN-38 were used as positive controls. […] Structurally, these derivatives differed in the size of the alkyl group of the N1 position and the presence or absence of an oxygen atom in that moiety (see Suppl. Data).
as §1, §2

PI3Kα = test system: PI3Kα; parameters: method as in earlier work; conditions: recombinant kinase; previously obtained kinase profiling data; cited from earlier work
T98 cells [3] = test: Cell viability assay (PrestoBlue, 5 d) in T98 glioma cells; assay type: cell-based; conditions: Homo sapiens, T98, 120 h; repeat for most potent hits; 7-point half-log dose-response 1 to 1,000 nM; PrestoBlue day 5
U87 cells [4] = test: Cell viability assay (PrestoBlue, 5 d) in U87 glioma cells; assay type: cell-based; conditions: Homo sapiens, U-87 MG, 120 h; repeat for most potent hits; 7-point half-log dose-response 1 to 1,000 nM; PrestoBlue day 5
mTOR = test system: mTOR; parameters: method as in earlier work; conditions: recombinant kinase; previously obtained kinase profiling data; cited from earlier work
U87 cells [5] = test: Cell viability assay (PrestoBlue, 5 d) in U87 glioma cells; assay type: cell-based; conditions: Homo sapiens, U-87 MG, 120 h, library screen, 5 d treatment, mean of three independent experiments in triplicates, read-out: EC50 U87 ± SEM
Experimental: as §3, §4, §1, §2

| GI50 [1] [nM] | EC50 (T98 cells [2]) [nM] | EC50 (T98 cells [3]) [nM] | EC50 (U87 cells [4]) [nM] | EC50 (U87 cells [5]) [nM] | Structure (SMILES) | reduction of G317 spheroid size (area at day 10) (G317 spheroids) | IC50 (PI3Kα) [nM] | IC50 (mTOR) [nM] |
| --- | --- | --- | --- | --- | --- | --- | --- | --- |
| 9.3 |  |  |  |  | CC(C)n1nc(-c2ccc3oc(N)nc3c2)c2c(N)ncnc21 [INK128, sapanisertib, reference compound] | most potent antiproliferative activities |  |  |
| 7.2 | 11 ± 3 | 10 | 13 | 16 ± 3 | Nc1nc2cc(-c3nn(CC4CCCC4)c4ncnc(N)c34)ccc2o1 [eCF324] | most potent antiproliferative activities | 3.5 | 1.8 |
